Assay [1] deals with T1, PD-1/PD-L1 interaction (Homo sapiens, UniProt Q9NZQ7).
T1 construct: expressed in transfected cells; host or cells: CHO cells (aAPC-PD-L1) co-cultured with Jurkat cells overexpressing PD-1 and an NFAT-luciferase reporter
In words: PD-1/PD-L1 NFAT reporter co-culture assay. The class given is cell-based. Particulars: Jurkat PD-1 NFAT-luciferase cells co-cultured with aAPC-PD-L1 CHO cells, 6 hrs at 37° C.; read-out: EC50 NFAT Luciferase. The method in brief: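 CHO aAPC-PD-L1 seeded overnight; PD-1/NFAT-luc Jurkat + cpd in RPMI 1640, 2% FBS added at once; 6 h, 37 °C; ONE-Glo luminescence; EC50, 4-parameter fit.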

The target in assay [2] is PD-1/PD-L1 (Homo sapiens, UniProt Q9NZQ7). Nature of the assay: PD-1/PD-L1 biochemical protein-protein interaction assay (ALPHA). The assay is classed as binding. Particulars: 0.3 nM His tagged PD-L1, 2.5 nM biotinylated Fc-PD-1, 60 minutes at 25° C., read-out: IC50 PD-L1-PD-1 Alpha IC50-mono PD-L1-fcP-D1. The method in brief: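 His-PD-L1 ECD 0.3 nM + biotin-Fc-PD-1 2.5 nM (final), 25 mM Hepes pH 7.4, 150 mM NaCl, 3.4 mM EDTA; 60 min, 25° C; anti-His acceptor/streptavidin donor ALPHA beads; decreased signal = blocked binding; 4-parameter IC50.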

For assay [3], the target named is T2, PD-L1 (Homo sapiens, UniProt Q9NZQ7).
T2 construct: determine if they can specifically dimerize the extracellular domains of PD-L1
Nature of the assay: PD-L1/PD-L1 dimerization biochemical protein-protein interaction assay (ALPHA). Conditions: compound-induced PD-L1 dimerization, head prints '1 nM' (0.5 nM His-tagged PD-L1 and 0.5 nM FLAG-tagged PD-L1), read-out: AC50 PDL1 Dimer Alpha 1 nM. The assay is classed as binding. In a few lines: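 After 2 h at 25 °C with compound, His- and FLAG-tagged PD-L1 ECDs (each 0.5 nM final; 25 mM Hepes pH 7.4, 150 mM NaCl) were detected by sequential anti-His acceptor and anti-FLAG donor bead incubations. Dose-response curves fitted to four-parameter equation for AC50.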

T2 sequence (Q9NZQ7 19-238 limits assumed): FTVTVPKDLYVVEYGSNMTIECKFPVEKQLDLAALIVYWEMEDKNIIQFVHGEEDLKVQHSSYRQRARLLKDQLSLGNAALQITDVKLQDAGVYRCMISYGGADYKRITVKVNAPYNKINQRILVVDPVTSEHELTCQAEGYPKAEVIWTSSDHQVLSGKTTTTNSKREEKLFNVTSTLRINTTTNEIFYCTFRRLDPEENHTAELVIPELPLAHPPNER
T2 sequence (Q9NZQ7 19-238 limits assumed): as above
Chain of PD-1/PD-L1 (Q9NZQ7 19-238 limits assumed): as above
T1 sequence (Q9NZQ7 19-290): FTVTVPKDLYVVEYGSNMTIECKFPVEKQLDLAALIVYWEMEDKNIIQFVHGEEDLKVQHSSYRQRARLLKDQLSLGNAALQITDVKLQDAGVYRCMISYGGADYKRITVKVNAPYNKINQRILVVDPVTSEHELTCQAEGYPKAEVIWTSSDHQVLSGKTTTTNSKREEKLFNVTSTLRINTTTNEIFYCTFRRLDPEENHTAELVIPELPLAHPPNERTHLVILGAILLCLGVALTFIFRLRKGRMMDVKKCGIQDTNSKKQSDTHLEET

Consider `Cc1c(COc2cc(OCc3cncc(C#N)c3)c(CNC[C@@H](O)CC(=O)O)cc2Cl)cccc1-c1cccc(-c2ccc([C@H](C)N(C)C)cc2)c1C` [Example 380, (S)-4-((5-chloro-2-((5-cyanopyridin-3-yl)methoxy)-4-((4″-((S)-1-(dimethylamino)ethyl)-2,2′-dimethyl-[1,1′:3′,1″-terphenyl]-3-yl)methoxy)benzyl)amino)-3-hydroxybutanoic acid], for which the concentration for a half-maximal effect (EC50) in assay [1] was determined as 652 nM. Moreover, in assay [2], the half-inhibitory concentration (IC50) worked out at 0.282 nM. In assay [3], the AC50 was 184 nM.
Turning to `Cc1c(COc2cc(OCc3cncc(C#N)c3)c(CNC[C@@H](O)CC(=O)O)cc2Cl)cccc1-c1cccc(-c2ccc3c(c2)CCC3N(C)C)c1C` (stereo partly drawn) [Example 381, (3S)-4-((5-chloro-2-((5-cyanopyridin-3-yl)methoxy)-4-((3′-(1-(dimethylamino)-2,3-dihydro-1H-inden-5-yl)-2,2′-dimethyl-[1,1′-biphenyl]-3-yl)methoxy)benzyl)amino)-3-hydroxybutanoic acid], in assay [1], the EC50 was 219 nM. Besides, the half-inhibitory concentration (IC50) in assay [2] was 0.158 nM. For the same molecule, the AC50 in assay [3] turned out to be 144 nM.
Take `Cc1c(COc2cc(OCc3cncc(C#N)c3)c(CN(C)C)cc2Cl)cccc1-c1cccc(-c2ccc(CN(C)C)nc2)c1C` [Example 382, 5-((4-chloro-2-((dimethylamino)methyl)-5-((3′-(6-((dimethylamino)methyl)pyridin-3-yl)-2,2′-dimethyl-[1,1′-biphenyl]-3-yl)methoxy)phenoxy)methyl)nicotinonitrile]: the concentration giving a half-maximal response (EC50) in assay [1] is 1230 nM. In addition, the half-inhibitory concentration (IC50) in assay [2] came out at 0.304 nM. Besides, the AC50 in assay [3] came out at 334 nM.
For the molecule `Cc1c(COc2cc(OCc3cncc(C#N)c3)c(CNC[C@@H](O)CC(=O)O)cc2Cl)cccc1-c1cccc(-c2ccc(CN(C)C)cc2)c1C` [Example 383, (S)-4-((5-chloro-2-((5-cyanopyridin-3-yl)methoxy)-4-((4″-((dimethylamino)methyl)-2,2′-dimethyl-[1,1′:3′,1″-terphenyl]-3-yl)methoxy)benzyl)amino)-3-hydroxybutanoic acid], the 50% effective concentration (EC50) in assay [1] was determined as 467 nM. In assay [2], the IC50 is 0.252 nM. The half-maximal activity concentration (AC50) in assay [3] turned out to be 157 nM.
For the molecule `Cc1c(COc2cc(OCc3cncc(C#N)c3)c(CNC[C@@H](O)CC(=O)O)cc2Cl)cccc1-c1cccc(-c2ccc(CNC[C@@H](O)CC(=O)O)cc2)c1C` [Example 384, (S)-4-((4-((4″-((((S)-3-carboxy-2-hydroxypropyl)amino)methyl)-2,2′-dimethyl-[1,1′:3′,1″-terphenyl]-3-yl)methoxy)-5-chloro-2-((5-cyanopyridin-3-yl)methoxy)benzyl)amino)-3-hydroxybutanoic acid], in assay [1], the concentration for a half-maximal effect (EC50) came to 154 nM. Moreover, the 50% inhibitory concentration (IC50) in assay [2] worked out at 0.112 nM. Besides, in assay [3], the AC50 was determined as 154 nM.
Regarding `COc1cc(COc2cccc(-c3cccc(COc4cc(OCc5cncc(C#N)c5)c(CNC[C@@H](O)CC(=O)O)cc4Cl)c3C)c2C)c(Cl)cc1CNC[C@@H](O)CC(=O)O` [Example 389, (S)-4-((4-(((3′-((4-((((S)-3-carboxy-2-hydroxypropyl)amino)methyl)-2-chloro-5-((5-cyanopyridin-3-yl)methoxy)phenoxy)methyl)-2,2′-dimethyl-[1,1′-biphenyl]-3-yl)oxy)methyl)-5-chloro-2-methoxybenzyl)amino)-3-hydroxybutanoic acid], in assay [1], the EC50 amounted to 306 nM. Also, in assay [2], the IC50 is 0.374 nM. Moreover, the AC50 in assay [3] was 120 nM.
In the case of `Cc1c(COc2cc(OCc3cncc(C#N)c3)c(CNC[C@@H](O)CC(=O)O)cc2Cl)cccc1-c1cccc(OCc2cc(OCc3cncc(C#N)c3)c(CNC[C@@H](O)CC(=O)O)cc2Cl)c1C` [Example 390, (S)-4-((4-((3′-((4-((((S)-3-carboxy-2-hydroxypropyl)amino)methyl)-2-chloro-5-((5-cyanopyridin-3-yl)methoxy)benzyl)oxy)-2,2′-dimethyl-[1,1′-biphenyl]-3-yl)methoxy)-5-chloro-2-((5-cyanopyridin-3-yl)methoxy)benzyl)amino)-3-hydroxybutanoic acid], the EC50 in assay [1] was determined as 120 nM. In assay [2], the half-maximal inhibitory concentration (IC50) came to 0.324 nM. Further, in assay [3], the AC50 is 97.5 nM.
Consider `Cc1c(COc2cc(OCc3cncc(C#N)c3)c(CNCC3(O)CC3)cc2Cl)cccc1-c1cccc(-c2ccc(OCCNCCO)cc2)c1C` [Example 391, 5-((4-chloro-2-((((1-hydroxycyclopropyl)methyl)amino)methyl)-5-((4″-(2-((2-hydroxyethyl)amino)ethoxy)-2,2′-dimethyl-[1,1′:3′,1″-terphenyl]-3-yl)methoxy)phenoxy)methyl)nicotinonitrile], for which the EC50 in assay [1] turned out to be 305 nM. In addition, the half-maximal inhibitory concentration (IC50) in assay [2] was determined as 1.42 nM. Moreover, in assay [3], the AC50 came to 243 nM.
`Cc1c(COc2cc(OCc3cncc(C#N)c3)c(CNC[C@@H](O)CC(=O)O)cc2Cl)cccc1-c1cccc(OCc2ccc(CNC[C@@H](O)CC(=O)O)cn2)c1C` [Example 392, (S)-4-(((6-(((3′-((4-((((S)-3-carboxy-2-hydroxypropyl)amino)methyl)-2-chloro-5-((5-cyanopyridin-3-yl)methoxy)phenoxy)methyl)-2,2′-dimethyl-[1,1′-biphenyl]-3-yl)oxy)methyl)pyridin-3-yl)methyl)amino)-3-hydroxybutanoic acid]: the EC50 in assay [1] is 351 nM. Further, the concentration for half-maximal inhibition (IC50) in assay [2] came out at 0.051 nM. Moreover, in assay [3], the half-maximal activity concentration (AC50) came to 232 nM.
Turning to `Cc1c(COc2cc(OCc3cncc(C#N)c3)c(CNC[C@@H](O)CC(=O)O)cc2Cl)cccc1-c1cccc(-c2nc3c(Cl)cc(CNC[C@@H](O)CC(=O)O)cn3n2)c1C` [Example 393, (S)-4-(((2-(3′-((4-((((S)-3-carboxy-2-hydroxypropyl)amino)methyl)-2-chloro-5-((5-cyanopyridin-3-yl)methoxy)phenoxy)methyl)-2,2′-dimethyl-[1,1′-biphenyl]-3-yl)-8-chloro-[1,2,4]triazolo[1,5-a]pyridin-6-yl)methyl)amino)-3-hydroxybutanoic acid], the 50% effective concentration (EC50) in assay [1] came to 118 nM. Besides, the half-maximal inhibitory concentration (IC50) in assay [2] amounted to 0.064 nM. Moreover, the AC50 in assay [3] was found to be 84 nM.
`Cc1c(COc2cc(OCc3cncc(C#N)c3)c(CNC[C@@H](O)CC(=O)O)cc2Cl)cccc1-c1cccc(-c2cn3cc(CNC[C@@H](O)CC(=O)O)ccc3n2)c1C` [Example 394, (S)-4-(((2-(3′-((4-((((S)-3-carboxy-2-hydroxypropyl)amino)methyl)-2-chloro-5-((5-cyanopyridin-3-yl)methoxy)phenoxy)methyl)-2,2′-dimethyl-[1,1′-biphenyl]-3-yl)imidazo[1,2-a]pyridin-6-yl)methyl)amino)-3-hydroxybutanoic acid]: the EC50 in assay [1] turned out to be 435 nM. Besides, the IC50 in assay [2] stood at 0.102 nM. Besides, the concentration at half-maximal activity (AC50) in assay [3] came to 130 nM.
The like results for `Cc1c(COc2cc(OCc3cncc(C#N)c3)c(CNC[C@@H](O)CC(=O)O)cc2Cl)cccc1-c1cccc(-c2nc3c(C)c(CNC[C@@H](O)CC(=O)O)ccc3s2)c1C` [Example 395, (S)-4-(((2-(3′-((4-((((S)-3-carboxy-2-hydroxypropyl)amino)methyl)-2-chloro-5-((5-cyanopyridin-3-yl)methoxy)phenoxy)methyl)-2,2′-dimethyl-[1,1′-biphenyl]-3-yl)-4-methylbenzo[d]thiazol-5-yl)methyl)amino)-3-hydroxybutanoic acid] were, in that order, 151 nM, 0.217 nM and 89.6 nM.
For `Cc1c(-c2nc3ccc(CNC[C@@H](O)CC(=O)O)cc3s2)cccc1-c1cccc2c1CC[C@@H]2Oc1nc(OCc2cncc(C#N)c2)c(CNC[C@@H](O)CC(=O)O)cc1Cl` [Example 396, (S)-4-(((2-(3-((S)-1-((5-((((S)-3-carboxy-2-hydroxypropyl)amino)methyl)-3-chloro-6-((5-cyanopyridin-3-yl)methoxy)pyridin-2-yl)oxy)-2,3-dihydro-1H-inden-4-yl)-2-methylphenyl)benzo[d]thiazol-6-yl)methyl)amino)-3-hydroxybutanoic acid], the concentration giving a half-maximal response (EC50) in assay [1] was found to be 105 nM. Moreover, the IC50 in assay [2] was 0.064 nM. For the same molecule, in assay [3], the AC50 came to 37.9 nM.
As for `COc1cc(-c2cccc(-c3cccc(COc4nc(OC)c(CN5CC6(C5)CN(C(C)=O)C6)cc4Br)c3Cl)c2Cl)ccc1CN1CC2(C1)CN(C(C)=O)C2` [Example 425], in assay [1], the EC50 worked out at 544 nM. For the same molecule, the concentration for half-maximal inhibition (IC50) in assay [2] was found to be 0.755 nM. Also, in assay [3], the half-maximal activity concentration (AC50) was found to be 226 nM.
For `COc1nc(-c2cccc(-c3cccc(OCc4ccc(CNC[C@@H]5CCC(=O)N5)cc4)c3Cl)c2Cl)ccc1CNC[C@@H]1CCC(=O)N1` [Example 426] the same measures were 634 nM, 0.397 nM and 408 nM.
For the molecule `COc1nc(Oc2cccc(-c3cccc(-c4ccc(CNC[C@@H]5CCC(=O)N5)c(OC)n4)c3Cl)c2Cl)ccc1CNC[C@@H]1CCC(=O)N1` [Example 428], in assay [1], the half-maximal effective concentration (EC50) is 282 nM. Besides, the concentration for half-maximal inhibition (IC50) in assay [2] amounted to 1.37 nM. Further, the AC50 in assay [3] came out at 525 nM.
As for `COc1nc(C(=O)Nc2cccc(-c3cccc(-c4ccc(CNC[C@@H]5CCC(=O)N5)c(OC)n4)c3Cl)c2Cl)ccc1CNC[C@@H]1CCC(=O)N1` [Example 429], the EC50 in assay [1] stood at 680 nM. Further, the IC50 in assay [2] worked out at 0.14 nM. Besides, in assay [3], the AC50 turned out to be 240 nM.

One may read the EC50 as the concentration at which the effect is half-maximal. Usually IC50 stands for the concentration that gives 50% inhibition. The AC50 is the concentration at which the activity in the assay is half-maximal.
